# Measurements from patent US20090203145A1, “METHODS FOR ANALYSIS OF VITAMINS” (priority 2008, published 2009).
# System: specific bacteria
# Experiment: Microbiological method for B6 (Official Method 961.15, Modified): signal response of similar molecules
# Assay type: cell-based
# Settings: microbiological B6 assay; for Signal Response in Microbiological Method: Response, %: B6 (pyridoxine) given as 100; for response in microbiological method compared with B6: statement in words
# Description: The often low concentrations of vitamins in foods can make measuring the level of vitamins in various foods difficult. For example, the low concentration of B vitamins in infant formula makes it difficult to be measured by traditional measurement techniques such as HPLC. Currently, microbiological methods for measuring B vitamins are widely used at laboratories. This method is based on the growth of specific bacteria in the presence of a specific B vitamin and can only be measured one analyte per assay. The analysis process may take more than 30 hours. Poor reproducibility is another disadvantage. It is not unusual for a bacterial response to vary with different compounds and show low specificity. Monitoring different chemical forms. Current microbiological method have less specificity, such as those described in Official Method 961.15 (Modified), Official Methods of Analysis of AOAC International, 17th ed., AOAC International, Gaithersburg Md. (2000). In the case of B6, for example, other similar molecules may have a similar response. […] However, these compounds can be distinguished by LC/MS/MS without any problem in real samples such as milk.
SMILES,"Signal Response in Microbiological Method: Response, % [%]",response in microbiological method compared with B6
"Cc1ncc(CO)c(CO)c1O [B6, pyridoxine, pyridoxine]",100,
"Cc1ncc(CO)c(C=O)c1O [Pyridoxal, pyridoxal]",112,response as strong as B6
"Cc1ncc(CO)c(CN)c1O [Pyridoxamine, pyridoxamine]",84,response as strong as B6
"Cc1ncc(CO)c(C(=O)O)c1O [Pyridoxic acid, 4-pyridoxic acid]",0,
